How the values were obtained:
[1] = molar heat capacity at constant pressure; details: 101.33 kPa, Crystal, DSC
[2] = Crystal, Transpiration method

O=C(O)c1ccccc1 [benzoic acid]
[1]
Details	molar heat capacity at constant pressure [J/K/mol]
318.8 K	122.9
319.2 K	127.1
319.7 K	130.8
320.1 K	134.3
320.6 K	137.7
321 K	140.7
321.4 K	143.4
321.9 K	146.1
322.3 K	148.4
322.7 K	150.5
323.1 K	152.4
323.5 K	154.1
324 K	155.6
324.4 K	157
324.8 K	158.3
325.2 K	159.5
325.6 K	160.4
326 K	161.3
326.4 K	162
326.8 K	162.7
327.2 K	163.4
327.6 K	163.9
328 K	164.3
328.3 K	164.8
328.7 K	165.1
329.1 K	165.3
329.5 K	165.6
329.9 K	165.7
330.3 K	165.9
330.6 K	166
331 K	166.3
331.4 K	166.3
331.8 K	166.4
332.1 K	166.4
332.5 K	166.4
332.9 K	166.5
333.3 K	166.5
333.6 K	166.5
334 K	166.6
334.4 K	166.6
334.8 K	166.5
335.1 K	166.6
335.5 K	166.7
335.9 K	166.7
336.2 K	166.7
336.6 K	166.7
337 K	166.7
337.3 K	166.7
337.7 K	166.9
338.1 K	166.9
338.5 K	167
338.8 K	167.1
339.2 K	167.2
339.6 K	167.3
339.9 K	167.4
340.3 K	167.5
340.7 K	167.6
341 K	167.7
341.4 K	167.8
341.8 K	167.9
342 K	168

N#Cc1ccc2ccccc2c1 [2-naphthalenecarbonitrile]
Details	molar heat capacity at constant pressure, [1] [J/K/mol]	vapor or sublimation pressure, [2] [kPa]
313.8 K	182.1	–
314.4 K	182.8	–
314.9 K	183.3	–
315.3 K	183.7	–
315.5 K	–	0.00091
315.8 K	184.2	–
316.3 K	184.6	–
316.8 K	185	–
317.3 K	185.3	–
317.8 K	185.4	–
318.2 K	185.5	–
318.4 K	–	0.00122
318.7 K	185.9	–
319.2 K	186.1	–
319.6 K	186.3	–
320.1 K	186.6	–
320.5 K	186.8	0.00152
320.9 K	187.1	–
321.4 K	187.4	–
321.8 K	187.5	–
322.2 K	187.8	–
322.4 K	–	0.00195
322.7 K	188.1	–
323.1 K	188.4	–
323.5 K	188.6	–
323.9 K	188.9	–
324.4 K	189.1	–
324.5 K	–	0.00237
324.8 K	189.5	–
325.2 K	189.8	–
325.6 K	190.2	–
326 K	190.7	–
326.4 K	191.2	0.00284
326.8 K	191.5	–
327.1 K	191.8	–
328.2 K	–	0.0035
331.3 K	–	0.00463
333.2 K	–	0.00579
334.2 K	–	0.00641

c1ccc2ccccc2c1 [naphthalene]
[2]
Details	vapor or sublimation pressure [kPa]
288.2 K	0.00418
290.7 K	0.00548
293.2 K	0.00698
298.2 K	0.01114
303.2 K	0.01811
308 K	0.02903
313.1 K	0.04408
318.2 K	0.0671
323.1 K	0.102
328.1 K	0.1538
330.5 K	0.1867
333 K	0.2235

Reference: the NIST ThermoML archive (doi:10.1016/j.tca.2018.07.026)
